Laboratory results from article PMC4258349 (International Journal of Medicinal Chemistry, 2014).
Values after ≈ are worked out from the molar mass of the structure shown. Read-outs that look alike come from different tables or passages of the source.

Legend:
[1] = tested on: Escherichia coli; experiment: microbe, parasite or virus in culture; assay type: cell-based; conditions: read-out: Minimum inhibitory concentration (MIC)
[2] = tested on: Aspergillus niger; experiment: microbe, parasite or virus in culture; assay type: cell-based; conditions: read-out: Minimum inhibitory concentration (MIC)
[3] = Relative acid stability (spectrophotometric absorbance); assay type: physicochemical; conditions: 0.1 mg/mL solution, at λ-max
Procedure: (§1) The relative thermal and acid stabilities of the complexes were determined spectrometrically. Dilute solutions (0.1 mg/mL) were prepared, their absorption spectra were generated, and the λ-max in each case was noted. The solution of each complex was divided into seven equal portions and the temperature regulated to 20°C, 30°C, 40°C, 50°C, 60°C, 70°C, and 80°C, respectively, for a period of 24 hours. The absorbance in each case was then measured. Similarly, the same concentration of these solutions was prepared at the pH range of 1–6 and the absorbance was measured. These changes in absorbance with temperature and pH, assuming that Beer-Lambert's law is obeyed, are a measure of the stability of the complexes.
The changes in absorbance with pH are a measure of the acid stability of the compounds.

[4] = tested on: Staphylococcus aureus; experiment: microbe, parasite or virus in culture; assay type: cell-based; conditions: read-out: Minimum inhibitory concentration (MIC)
[5] = tested on: Bacillus subtilis; experiment: microbe, parasite or virus in culture; assay type: cell-based; conditions: read-out: Minimum inhibitory concentration (MIC)
[6] = tested on: Shigella spp.; experiment: microbe, parasite or virus in culture; assay type: cell-based; conditions: 24 h, read-out: Inhibition zone diameter
[7] = tested on: Salmonella typhi; experiment: Agar well diffusion, inhibition zone diameter; assay type: cell-based; conditions: Salmonella enterica, 24 h, read-out: Inhibition zone diameter
[8] = tested on: Pseudomonas aeruginosa; experiment: microbe, parasite or virus in culture; assay type: cell-based; conditions: read-out: Minimum inhibitory concentration (MIC)
[9] = tested on: Shigella spp.; experiment: microbe, parasite or virus in culture; assay type: cell-based; conditions: read-out: Minimum inhibitory concentration (MIC)
[10] = tested on: Escherichia coli; experiment: microbe, parasite or virus in culture; assay type: cell-based; conditions: read-out: Inhibition zone diameter
[11] = Relative acid stability (spectrophotometric absorbance); assay type: physicochemical; conditions: 0.1 mg/mL solution, at λ-max; remark: listed apart in the source
[12] = Relative thermal stability (spectrophotometric absorbance); assay type: physicochemical; conditions: 0.1 mg/mL solution, 24 hours, at λ-max
Procedure: as §1

[13] = tested on: Bacillus subtilis; experiment: microbe, parasite or virus in culture; assay type: cell-based; conditions: read-out: Inhibition zone diameter
[14] = tested on: Pseudomonas aeruginosa; experiment: microbe, parasite or virus in culture; assay type: cell-based; conditions: read-out: Inhibition zone diameter
[15] = tested on: Staphylococcus aureus; experiment: microbe, parasite or virus in culture; assay type: cell-based; conditions: read-out: Inhibition zone diameter
[16] = tested on: Salmonella typhi; experiment: Minimum inhibitory concentration (dilutions, plot of IZD^2 against log concentration); assay type: cell-based; conditions: Salmonella enterica, read-out: Minimum inhibitory concentration (MIC)
[17] = tested on: Aspergillus niger; experiment: Agar well diffusion, inhibition zone diameter; assay type: cell-based; conditions: 48 h, read-out: Inhibition zone diameter
[18] = Procedure: Saturated solution (10 mL) of each of the complexes and ligands at ambient temperature (28°C) was evaporated to dryness in an evaporating dish. The mass of the solid left in each case was determined. The solubilities were calculated using the relation: (1) S=mass/volume×1000. The solubilities of the complexes were compared with those of the ligands.
The solubilities were determined at 28°C.

| SMILES | Absorbance at pH 1 [3] | Absorbance at pH 2 [3] | Absorbance at pH 3 [3] | Absorbance at pH 4 [3] | Absorbance at pH 5 [3] | Absorbance at pH 6 [3] | zone of inhibition at 5000 µg/mL [6] [mm] | zone of inhibition at 5000 µg/mL [7] [mm] | MIC [9] [µg/mL] | Absorbance at pH 7 [11] | Absorbance at 20°C [12] | Absorbance at 30°C [12] | Absorbance at 40°C [12] | Absorbance at 50°C [12] | Absorbance at 60°C [12] | Absorbance at 70°C [12] | Absorbance at 80°C [12] | MIC [16] [µg/mL] | zone of inhibition at 5000 µg/mL [17] [mm] | other results |
| --- | --- | --- | --- | --- | --- | --- | --- | --- | --- | --- | --- | --- | --- | --- | --- | --- | --- | --- | --- | --- |
| CC1(C)S[C@@H]2[C@H](NC(=O)[C@H](N)c3ccc(O)cc3)C(=O)N2[C@H]1C(=O)O [Amoxicillin] | 0.387 | 0.404 | 0.499 | 0.511 | 0.603 | 0.620 | 30 | 35.5 | 11 (≈ 30.1 µM) | 0.664 | 0.661 | 0.664 | 0.643 | 0.428 | 0.369 | 0.312 | 0.126 | 11 (≈ 30.1 µM) | 35 | MIC [1]: 12.5 µg/mL (≈ 34.2 µM); MIC [2]: 15 µg/mL (≈ 41 µM); MIC [4]: 12.5 µg/mL (≈ 34.2 µM); MIC [5]: 12.5 µg/mL (≈ 34.2 µM); MIC [8]: 14 µg/mL (≈ 38.3 µM); zone of inhibition at 5000 µg/mL ([10]; 24 h): 33 mm; zone of inhibition at 5000 µg/mL ([13]; 24 h): 30 mm; zone of inhibition at 5000 µg/mL ([14]; 24 h): 28 mm; zone of inhibition at 5000 µg/mL ([15]; 24 h): 30 mm |
| Cc1onc(-c2ccccc2Cl)c1C(=O)N[C@@H]1C(=O)N2[C@@H]1SC(C)(C)[C@@H]2C(=O)O [Cloxacillin] | 0.437 | 0.449 | 0.550 | 0.554 | 0.696 | 0.704 | 30 | 27 | 12.5 (≈ 28.7 µM) | 0.722 | 0.721 | 0.727 | 0.683 | 0.455 | 0.337 | 0.190 | 0.184 | 14.5 (≈ 33.3 µM) | 30 | MIC ([1]; E. coli clinical isolate): 14.5 µg/mL (≈ 33.3 µM); MIC ([2]; A. niger clinical isolate): 14.5 µg/mL (≈ 33.3 µM); MIC ([4]; S. aureus clinical isolate): 12.5 µg/mL (≈ 28.7 µM); MIC ([5]; B. subtilis clinical isolate): 12.5 µg/mL (≈ 28.7 µM); MIC ([8]; P. aeruginosa clinical isolate): 22 µg/mL (≈ 50.5 µM); zone of inhibition at 5000 µg/mL ([10]; E. coli clinical isolate, 5 mg/mL, 32°C 24 hours): 28 mm; zone of inhibition at 5000 µg/mL ([13]; B. subtilis clinical isolate, 5 mg/mL, 32°C 24 hours): 32 mm; zone of inhibition at 5000 µg/mL ([14]; P. aeruginosa clinical isolate, 5 mg/mL, 32°C 24 hours): 20 mm; Solubility [18]: Negligible; zone of inhibition at 5000 µg/mL ([15]; S. aureus clinical isolate, 5 mg/mL, 32°C 24 hours): 31.5 mm |
